Calls of active or inactive are those of the source. How the calls were made is not given here.

Experiment [1] concerns the target Diacylglycerol lipase-beta (Mus musculus) (UniProt Q91WC9). The experiment in a line: ABHD6 anti-target inhibition potency, dose response, selectivity assay for DAGLb inhibitor project, cell-based, gel-based competitive ABPP, fluorescence, in situ (AID 602335). As to conditions: DAGLb.
The target of experiment [2] is Monoacylglycerol lipase ABHD6 (Mus musculus) (UniProt Q8R2Y0). The experiment is described as above.
Sequence of Monoacylglycerol lipase ABHD6 (Mus musculus) (Q8R2Y0 whole entry, looked up): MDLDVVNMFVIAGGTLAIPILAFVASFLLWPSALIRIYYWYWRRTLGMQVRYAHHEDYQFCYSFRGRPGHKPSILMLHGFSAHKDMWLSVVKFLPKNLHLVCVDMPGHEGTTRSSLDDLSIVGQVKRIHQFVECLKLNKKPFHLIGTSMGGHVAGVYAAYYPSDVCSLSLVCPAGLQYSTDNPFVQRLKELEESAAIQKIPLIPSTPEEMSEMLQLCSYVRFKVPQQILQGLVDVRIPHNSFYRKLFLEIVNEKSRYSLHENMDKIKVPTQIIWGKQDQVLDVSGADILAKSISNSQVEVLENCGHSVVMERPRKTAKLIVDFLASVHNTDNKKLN

Sequence of Diacylglycerol lipase-beta (Mus musculus) (Q91WC9 whole entry, looked up): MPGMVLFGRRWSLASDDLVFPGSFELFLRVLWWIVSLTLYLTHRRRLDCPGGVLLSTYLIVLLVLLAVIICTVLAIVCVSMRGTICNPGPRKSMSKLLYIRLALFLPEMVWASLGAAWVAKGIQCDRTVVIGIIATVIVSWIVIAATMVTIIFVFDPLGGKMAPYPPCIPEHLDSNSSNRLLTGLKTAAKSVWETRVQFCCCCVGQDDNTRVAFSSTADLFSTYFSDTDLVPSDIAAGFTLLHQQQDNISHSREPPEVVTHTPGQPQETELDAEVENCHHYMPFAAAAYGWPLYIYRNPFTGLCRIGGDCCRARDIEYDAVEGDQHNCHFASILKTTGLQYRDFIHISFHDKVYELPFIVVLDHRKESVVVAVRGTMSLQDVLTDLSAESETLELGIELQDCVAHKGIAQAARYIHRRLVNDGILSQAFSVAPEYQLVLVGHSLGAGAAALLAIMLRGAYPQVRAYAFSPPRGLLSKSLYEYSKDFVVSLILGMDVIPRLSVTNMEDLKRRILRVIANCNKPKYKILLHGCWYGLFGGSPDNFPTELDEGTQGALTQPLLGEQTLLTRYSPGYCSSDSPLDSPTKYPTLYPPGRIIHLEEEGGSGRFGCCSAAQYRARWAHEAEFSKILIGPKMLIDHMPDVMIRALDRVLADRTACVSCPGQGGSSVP

As usually defined, the IC50 is the concentration at which inhibition is half-maximal. Take `O=C(O)c1cccc(-c2ccc(-c3cn(C(=O)N4CCCCC4Cc4ccccc4)nn3)cc2)c1` (stereo unspecified): the IC50 in experiment [1] was > 100 nM (inactive).
With `O=C(N1CCCCC1c1ccccc1)n1cc(-c2ccc(-c3ccccc3)cc2)nn1` (stereo unspecified), the concentration for half-maximal inhibition (IC50) in experiment [2] was 0.17 nM; in experiment [1] it was > 100 nM (inactive).
The like results for `COc1ccc(-c2ccc(-c3cn(C(=O)N4CCCCC4c4ccccc4)nn3)cc2)cc1` (stereo unspecified) were, in that order, 1.3 nM and > 100 nM (inactive).
With `O=C(N1CCCCC1c1ccccc1)n1cc(-c2ccc(-c3cccc(CO)c3)cc2)nn1` (stereo unspecified), in experiment [1], the IC50 was > 100 nM (inactive).

The record behind these values is PubChem BioAssay AID602335 (The Scripps Research Institute Molecular Screening Center, 2012).
